Source: US5504071A, “Compounds with a sequence of three radicals, the central one being α- a” (Polifarma S.p.A., priority 1990, dated 1996)
Square brackets hold non-standard residues; d marks the D form. Peptide text beside a SMILES is read from it. * marks the point of attachment. Trp(1-Me) = Cn1cc(C[C@H](N)C(=O)O)c2ccccc21; Tic = O=C(O)[C@@H]1Cc2ccccc2CN1; pGlu = O=C1CC[CH](C(=O)O)N1; Hyp = O=C(O)[CH]1C[CH](O)CN1; Phg = N[CH](C(=O)O)c1ccccc1; ΔPro = O=C(O)[C@@H]1C=CCN1; Pip = O=C(O)[C@@H]1CCCCN1; αMeP = C[C]1(C(=O)O)CCCN1; Cbz = O=C(OCc1ccccc1)*; Aze = O=C(O)[CH]1CCN1; Boc = CC(C)(C)OC(=O)*

Tests used:
[1] = Hot Plate test (analgesic activity); assay type: in vivo
Source text: (§1) In the following examples will first of all be given the data necessary for synthesis of the compounds according to the present invention. There will then be given data regarding their pharmacological activity, using methods widely known to be valid. In particular, for the pressure tests, spontaneously hyper-tensive rats were used (SHR from the company Charles River), operated in such a way as to enable pressure to be read even when the animals were awake and free to move. In order to evaluate the analgesic activity, the Hot Plate and Writhing Tests were used. For the anti-inflammatory effect the test of carraginine edema was used. Finally, for immuno-modulating activity the evaluation of the stimulation of growth of human lymphocytes in culture was resorted to, after the addition of specific antigens. The results obtained for each synthesized compound are given at the end of each example.

[2] = tested on: human lymphocytes in culture; assay: stimulation of growth of human lymphocytes in culture after addition of specific antigens; assay type: cell-based; settings: for immune response (immuno-stimulating activity): antigen not stated
Source text: as §1

[3] = tested on: spontaneously hyper-tensive rats (SHR); assay: pressure tests in awake spontaneously hypertensive rats; assay type: in vivo
Source text: as §1

[4] = Writhing test (analgesic activity); assay type: in vivo; settings: dose not stated
Source text: as §1

carraginine edema = carraginine edema test (anti-inflammatory effect); assay type: in vivo; settings: dose not stated
Source text: as §1

[5] = analgesic activity, test not specified (Hot Plate and Writhing Tests); assay type: in vivo; settings: test and dose not stated
Source text: as §1

Compound	immune response (immuno-stimulating activity) [2]	anti-hypertensive effect ([3]; dose not stated)	anti-inflammatory effect (carraginine edema)	further results
CCOC(=O)[C@@H]1Cc2c([nH]c3ccccc23)CN1C(=O)[C@H](C)NC(=O)[C@@H]1CCCN1C(=O)OCc1ccccc1 [compound 1, Z-(L)-Pro-(L)-Ala-(S)-CytOEt]	–	–	–	pain killing effect under the Hot Plate test ([1]; 4 mg/Kg i.p.): slight pain killing effect; response of lymphocytes stimulated by phytohemoagglutinine (PHA) ([2]; PHA stimulation): increases the response of lymphocytes; anti-hypertensive effect ([3]; 4 mg/Kg i.p.): good anti-hypertensive effect; duration of the anti-hypertensive effect ([3]; 4 mg/Kg i.p.): maintained for a number of hours
C[C@H](NC(=O)[C@@H]1CCCN1C(=O)OCc1ccccc1)C(=O)NCCc1c[nH]c2ccccc12 [compound 2, Z-(L)-Pro-(L)-Ala-TrpH]	increased, but to a lesser extent than in the previous compound	comparable to that of compound 1	–	–
C[C@H](NC(=O)[C@@H]1CCCN1C(=O)OCc1ccccc1)C(=O)N1CCc2c([nH]c3ccccc23)C1 [compound 3, Z-(L)-Pro-(L)-Ala-CytH]	–	–	–	anti-hypertensive effect ([3]; 8 mg/Kg i.p.): bland anti-hypertensive effect
COC(=O)[C@H](Cc1ccc(OC)cc1)NC(=O)[C@H](C)NC(=O)[C@@H]1CCCN1C(=O)OCc1ccccc1 [compound 4, Z-(L)-Pro-(L)-Ala-(L)-OmtOMe] (Cbz-Pro-Ala-Tyr(Me)-OMe)	slightly increased	–	–	anti-hypertensive effect ([3]; 8 mg/Kg i.v.): bland anti-hypertensive effect
COC(=O)[C@@H](NC(=O)[C@H](C)NC(=O)[C@@H]1CCCN1C(=O)OCc1ccccc1)c1ccccc1 [compound 5, Z-(L)-Pro-(L)-Ala-(L)-PhgOMe] (Cbz-Pro-Ala-[Phg]-OMe)	–	–	–	analgesic effect using the Hot Plate test ([1]; dose not stated): moderate analgesic effect; anti-hypertensive effect ([3]; 8 mg/Kg i.p.): bland anti-hypertensive effect
COC[C@H](Cc1ccccc1)NC(=O)[C@H](C)NC(=O)[C@@H]1CCCN1C(=O)OCc1ccccc1 [compound 6, Z-(L)-Pro-(L)-Ala-(L)-Pme]	more consistent	–	rather weak	extension of time in the Hot Plate test ([1]; dose not stated): 25%; reduction of contorsions during the Writhing test [4]: 70%; anti-hypertensive effect ([3]; 2 mg/Kg i.v.): good anti-hypertensive activity; reduction of pressure ([3]; 2 mg/Kg i.v., after one hour): approximately 25%; analgesic activity [5]: good analgesic activity
COC(=O)[C@H](Cc1cn(C)c2ccccc12)NC(=O)[C@H](C)NC(=O)[C@@H]1CCCN1C(=O)OCc1ccccc1 [compound 7, Z-(L)-Pro-(L)-Ala-(1)-Me-(L)-TrpOMe] (Cbz-Pro-Ala-[Trp(1-Me)]-OMe)	–	–	–	anti-hypertensive effect ([3]; 2 mg/Kg i.v.): good anti-hypertensive effect; reduction of pressure ([3]; 2 mg/Kg i.v.): 10%
COC(=O)[C@H](Cc1c[nH]c2ccccc12)NC(=O)[C@H](CC(C)C)NC(=O)c1ccco1 [compound 8, 2-Fur-(L)-Leu-(L)-TrpOMe]	strongly stimulated even with small doses of peptide	–	slight anti-inflammatory effect	anti-hypertensive effect ([3]; 4 mg/Kg i.v.): slight anti-hypertensive effect
COC(=O)[C@H](Cc1c[nH]c2ccccc12)NC(=O)[C@H](CC(C)C)NC(=O)c1ccc[nH]1 [compound 9, 2-Pyrrolyl-(L)-Leu-(L)-TrpOMe]	–	slight effect on pressure	bland reduction of inflammatory responses	–
COC(=O)C(Cc1c[nH]c2ccccc12)NC(=O)C(CC(C)C)NC(=O)C1CCCN1C.Cl (centres unmarked) [compound 10, N-Me-(L)-Pro(L)-Leu-(L)-TrpOMe.HCl]	slightly increased	–	–	anti-hypertensive effect ([3]; 2 mg/Kg i.v.): excellent anti-hypertensive effect; analgesic activity [5]: low analgesic effect
COC(=O)[C@@H]1Cc2ccccc2CN1C(=O)[C@H](C)NC(=O)[C@@H]1CCCN1C(=O)OCc1ccccc1 [compound 11, Z-(L)-Pro-(L)-Ala-CypOMe] (Cbz-Pro-Ala-[Tic]-OMe)	–	slight anti-hypertensive effect	moderate anti-inflammatory effect	–
COC(=O)C(Cc1c[nH]c2ccccc12)NC(=O)C(CC(C)C)NC(=O)C1(C)CCCN1C(=O)OC(C)(C)C (stereo not drawn) [compound 12, Boc-(L)-Mep-(L)-Leu-(L)TrpOMe] (Boc-[αMeP]-Leu-Trp-OMe; configuration not given here)	–	bland anti-hypertensive effect	reduction of the inflammatory response	–
COC(=O)[C@H](Cc1c[nH]c2ccccc12)NC(=O)[C@H](CC(C)C)NC(=O)[C@@H]1C=CCN1C(=O)OC(C)(C)C [compound 13, Boc-.gradient.^3.4 -(L)-Pro-(L)-Leu-(L)-TrpOMe] (Boc-[ΔPro]-Leu-Trp-OMe)	slightly increases the immune response	slightly anti-hypertensive	–	–
COC(=O)[C@H](Cc1c[nH]c2ccccc12)NC(=O)[C@H](CC(C)C)NC(=O)[C@@H]1Cc2ccccc2N1C(=O)OCc1ccccc1 [compound 14, Z-(S)-Dhi-(L)-Leu-(L)-TrpOMe]	–	bland reduction of pressure	–	analgesic activity [5]: moderate analgesic effect
COC(=O)[C@H](Cc1c[nH]c2ccccc12)NC(=O)[C@H](CC(C)C)NC(=O)[C@@H]1CCCCN1C(=O)OCc1ccccc1 [compound 15, Z-(L)-Pip-(L)-Leu-(L)-TrpOMe] (Cbz-[Pip]-Leu-Trp-OMe)	slight increase in immune response	–	consistent	anti-hypertensive effect ([3]; 2 mg/Kg i.v.): good anti-hypertensive effect; reduction of pressure ([3]; 2 mg/Kg i.v.): up to 30%
COC(=O)C(Cc1c[nH]c2ccccc12)NC(=O)C(CC(C)C)NC(=O)C1CC(O)CN1C(=O)OCc1ccccc1 (stereo not drawn) [compound 16, Z-(L)-Hyp-(L)-Leu-(L)-TrpOMe] (Cbz-[Hyp]-Leu-Trp-OMe; configuration not given here)	–	bland anti-hypertensive action	–	analgesic activity [5]: modest analgesic effect
COC(=O)C(Cc1c[nH]c2ccccc12)NC(=O)C(CC(C)C)NC(=O)C1CCN1C(=O)OCc1ccccc1 [compound 17, Z-(S)-Aze-(L)-Leu-(L)-TrpOMe] (Cbz-[Aze]-Leu-Trp-OMe; configuration not given here)	–	slight anti-hypertensive effect	bland anti-inflammatory activity	–
COC(=O)[C@H](Cc1c[nH]c2ccccc12)NC(=O)[C@H](CC(C)C)NC(=O)[C@@H]1CCCO1 [compound 18, (S)-Tfc-(L)-Leu-(L)-TrpOMe]	stimulates the immune response in a moderate manner	bland anti-hypertensive effect	–	–
COC(=O)[C@H](Cc1c[nH]c2ccccc12)NC(=O)[C@H](CC(C)C)NC(=O)[C@@H]1CCC(=O)N1C(=O)OCc1ccccc1 [compound 19, Z-(L)-Pyr-(L)-Leu-(L)-TrpOMe]	–	slight anti-hypertensive effect	fair anti-inflammatory activity	–
COC(=O)[C@@H]1Cc2c([nH]c3ccccc23)CN1C(=O)[C@H](CC(C)C)NC(=O)[C@@H]1CCC(=O)N1C(=O)OCc1ccccc1 [compound 20, Z-(L)-Pyr-(L)-Leu-(S)-CytOMe]	–	bland anti-hypertensive activity	fair anti-inflammatory activity	–
COC(=O)[C@@H]1Cc2ccccc2CN1C(=O)[C@H](CC(C)C)NC(=O)[C@@H]1CCC(=O)N1C(=O)OCc1ccccc1 [compound 21, Z-CL)-Pyr-(L)-Leu-(S)-CypOMe]	good immuno-stimulating activity	slight anti-hypertensive activity	–	–
COC(=O)C(NC(=O)CNC(=O)C1CCC(=O)N1)c1ccccc1 (stereo not drawn) [compound 22, (L)-Pyr-Gly-(L)-PhgOMe] ([pGlu]-Gly-[Phg]-OMe; configuration not given here)	appears to increase the immune response	–	very good	reduction of edema (carraginine edema): 70%; anti-hypertensive effect ([3]; 4 mg/Kg i.p.): excellent anti-hypertensive activity; reduction of pressure values ([3]; 4 mg/Kg i.p.): 20%
COC[C@H](Cc1ccccc1)NC(=O)CNC(=O)[C@@H]1CCC(=O)N1 [compound 23, (L)-Pyr-Gly-(L)-Pme]	good immuno-stimulating effect	–	–	reduction of contorsions during the Writhing test [4]: 80%; anti-hypertensive effect ([3]; 8 mg/Kg i.p.): good anti-hypertensive activity; analgesic activity [5]: excellent analgesic effect
COC(=O)[C@@H]1Cc2ccccc2CN1C(=O)CNC(=O)[C@@H]1CCC(=O)N1 [compound 24, (L)-Pyr-Gly-(L)-CypOMe] ([pGlu]-Gly-[Tic]-OMe)	–	bland anti-hypertensive action	moderate anti-inflammatory action	–
COC(=O)[C@@H]1Cc2c([nH]c3ccccc23)CN1C(=O)[C@H](CC(C)C)NC(=O)[C@@H]1CCC(=O)N1 [compound 25, (L)-Pyr-(L)-Leu-(S)-CytOMe]	–	bland anti-hypertensive effect	–	analgesic activity [5]: weak analgesic activity
